Data as given in ChEMBL document CHEMBL1201862, “PubChem BioAssay data set” (2004).
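Assay format: 96-well plates, 48-hour exposure. Here, GI50 denotes the concentration required for 50% inhibition of growth.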 Active and inactive are the calls of the source. Rule as the data show it: active = GI50 up to about 1.1 µM and inactive = higher.

Experiments:
Experiment in all cases: NCI tumour cell line growth inhibition, 48 h
786-0 = test system: 786-0
A498 = test system: A498
A549 = test system: A549
ACHN = test system: ACHN
BT-549 = test system: BT-549
CAKI-1 = test system: CAKI-1
CCRF-CEM = test system: CCRF-CEM
COLO 205 = test system: COLO 205
DU-145 = test system: DU-145
EKVX = test system: EKVX
HCC 2998 = test system: HCC 2998
HCT-116 = test system: HCT-116
HCT-15 = test system: HCT-15
HL-60 = test system: HL-60
HOP-62 = test system: HOP-62
HT-29 = test system: HT-29
Hs-578T = test system: Hs-578T
IGROV-1 = test system: IGROV-1
K562 = test system: K562
KM12 = test system: KM12
LOX IMVI = test system: LOX IMVI
M14 = test system: M14
MCF7 = test system: MCF7
MDA-MB-231 = test system: MDA-MB-231
MDA-MB-435 = test system: MDA-MB-435
MDA-N = test system: MDA-N
MOLT-4 = test system: MOLT-4
Malme-3M = test system: Malme-3M
NCI-H226 = test system: NCI-H226
NCI-H23 = test system: NCI-H23
NCI-H460 = test system: NCI-H460
NCI-H522 = test system: NCI-H522
NCI/ADR-RES = test system: NCI/ADR-RES
OVCAR-3 = test system: OVCAR-3
OVCAR-4 = test system: OVCAR-4
OVCAR-5 = test system: OVCAR-5
OVCAR-8 = test system: OVCAR-8
PC-3 = test system: PC-3
RPMI-8226 = test system: RPMI-8226
RXF 393 = test system: RXF 393
SF-268 = test system: SF-268
SF-295 = test system: SF-295
SK-MEL-28 = test system: SK-MEL-28
SK-MEL-2 = test system: SK-MEL-2
SK-MEL-5 = test system: SK-MEL-5
SK-OV-3 = test system: SK-OV-3
SN12C = test system: SN12C
SNB-19 = test system: SNB-19
SNB-75 = test system: SNB-75
SR = test system: SR
SW-620 = test system: SW-620
T47D = test system: T47D
TK-10 = test system: TK-10
U-251 = test system: U-251
UACC-257 = test system: UACC-257
UACC-62 = test system: UACC-62
UO-31 = test system: UO-31

C/C(=N/Nc1nc(C)cc(O)n1)C(=O)O
GI50 (786-0): > 100 µM (inactive)
GI50 (A498): > 100 µM (inactive)
GI50 (A549): > 100 µM (inactive)
GI50 (ACHN): > 100 µM (inactive)
GI50 (BT-549): > 100 µM (inactive)
GI50 (CAKI-1): > 100 µM (inactive)
GI50 (CCRF-CEM): > 100 µM (inactive)
GI50 (COLO 205): > 100 µM (inactive)
GI50 (DU-145): > 100 µM (inactive)
GI50 (EKVX): > 100 µM (inactive)
GI50 (HCC 2998): > 100 µM (inactive)
GI50 (HCT-116): > 100 µM (inactive)
GI50 (HCT-15): > 100 µM
GI50 (HL-60): > 100 µM (inactive)
GI50 (HOP-62): > 100 µM (inactive)
GI50 (HT-29): > 100 µM (inactive)
GI50 (Hs-578T): > 100 µM (inactive)
GI50 (IGROV-1): > 100 µM (inactive)
GI50 (K562): > 100 µM (inactive)
GI50 (KM12): > 100 µM (inactive)
GI50 (LOX IMVI): > 100 µM (inactive)
GI50 (M14): > 100 µM (inactive)
GI50 (MCF7): > 100 µM (inactive)
GI50 (MDA-MB-231): > 100 µM (inactive)
GI50 (MDA-MB-435): > 100 µM (inactive)
GI50 (MDA-N): > 100 µM (inactive)
GI50 (MOLT-4): > 100 µM (inactive)
GI50 (Malme-3M): > 100 µM (inactive)
GI50 (NCI-H226): > 100 µM (inactive)
GI50 (NCI-H23): > 100 µM (inactive)
GI50 (NCI-H460): > 100 µM (inactive)
GI50 (NCI-H522): > 100 µM (inactive)
GI50 (NCI/ADR-RES): > 100 µM (inactive)
GI50 (OVCAR-3): > 100 µM (inactive)
GI50 (OVCAR-4): > 100 µM (inactive)
GI50 (OVCAR-5): > 100 µM (inactive)
GI50 (OVCAR-8): > 100 µM (inactive)
GI50 (PC-3): > 100 µM (inactive)
GI50 (RPMI-8226): > 100 µM (inactive)
GI50 (RXF 393): > 100 µM (inactive)
GI50 (SF-268): > 100 µM (inactive)
GI50 (SF-295): > 100 µM (inactive)
GI50 (SK-MEL-28): > 100 µM (inactive)
GI50 (SK-MEL-2): > 100 µM (inactive)
GI50 (SK-MEL-5): > 100 µM (inactive)
GI50 (SK-OV-3): > 100 µM (inactive)
GI50 (SN12C): 19 µM (inactive)
GI50 (SNB-19): > 100 µM (inactive)
GI50 (SNB-75): > 100 µM (inactive)
GI50 (SR): > 100 µM (inactive)
GI50 (SW-620): > 100 µM (inactive)
GI50 (T47D): > 100 µM (inactive)
GI50 (TK-10): > 100 µM (inactive)
GI50 (U-251): > 100 µM (inactive)
GI50 (UACC-257): > 100 µM (inactive)
GI50 (UACC-62): > 100 µM (inactive)
GI50 (UO-31): > 100 µM (inactive)
